Data published in patent publication US11000033B2, “Ketone or oxime compound, and herbicide” (NISSAN CHEMICAL CORPORATION, priority 2014, dated 2021).

How the values were obtained:
Format in all cases: in vivo
[1] = system: Echinochloa oryzacola Vasing.; experiment: Test Example 2: herbicidal activity, application during weed generation in submerged conditions (symbol A); details: Table 23; application herbicide amount 320 g/ha; grade 0-5 by criteria of Test Example 1
Description: (§1) Herbicidal Activity Test by Application During Weed Generation in Submerged Conditions
(§2) After alluvial soil was placed into 1/10000 are of Wagner pot, water was poured and mixed to form a submerged condition having a water depth of 4 cm. Seeds of Echinochloa oryzacola Vasing., Scirpus juncoides, and Monochoria vaginalis were sowed in a mixed manner in the above pot and the pot was placed in the greenhouse of 25° C. to 30° C. to grow the plants. When Echinochloa oryzacola Vasing., Scirpus juncoides, and Monochoria vaginalis were grown to one leaf stage to two leaf stage, the emulsion agent of the compound of the present invention prepared in accordance with Formulation Example 2 was diluted with water so as to be a predetermined herbicide amount and the diluted emulsion agent was applied to the surface of the water. 3 weeks later from the herbicide application, the effect to each plant was investigated in accordance with the criteria of Test Example 1.

Lolium multiflorum Lam. = experiment: Test Example 5: herbicidal effect by foliage application, plastic box (symbol K); details: 320 g/ha, 3 weeks after application
In short: (§3)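 Sowing in sterilized diluvial soil, 14 days' greenhouse growth at 25° C. to 30° C., then uniform small-sprayer foliar application of aqueous emulsion dilution; plants scored three weeks afterwards.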

Avena fatua = experiment: Test Example 5: herbicidal effect by foliage application, plastic box (symbol I); details: 320 g/ha, 3 weeks after application
In short: as §3

Chenopodium album = experiment: Test Example 5: herbicidal effect by foliage application, plastic box (symbol O); details: 320 g/ha, 3 weeks after application
In short: as §3

soybean = experiment: Test Example 5: effect on crop by foliage application, plastic box (symbol d); details: 320 g/ha, 3 weeks after application
In short: (§4)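 In a plastic box 7 cm deep filled with sterilized diluvial soil, seeds of crops and weeds such as Digitaria ciliaris, Avena fatua and Amaranthus retroflexus are sown in spots and covered with about 1.5 cm of soil before greenhouse growth at 25–30° C.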

Abutilon theophrasti = experiment: Test Example 5: herbicidal effect by foliage application, plastic box (symbol M); details: 320 g/ha, 3 weeks after application
In short: as §3

Galium spurium = experiment: Test Example 5: herbicidal effect by foliage application, plastic box (symbol Q); details: 320 g/ha, 3 weeks after application
In short: as §3

Monochoria vaginalis [2] = experiment: Test Example 2: herbicidal activity, application during weed generation in submerged conditions (symbol C); details: Table 23; application herbicide amount 320 g/ha; grade 0-5 by criteria of Test Example 1
Description: as §1, §2

corn = experiment: Test Example 5: effect on crop by foliage application, plastic box (symbol c); details: 320 g/ha, 3 weeks after application
In short: as §4

transplanted rice plant = experiment: Test Example 1: effect on crop, application before weed generation in submerged conditions (symbol a); details: application herbicide amount 320 g/ha
In short: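 Alluvial soil pots flooded to 4 cm water, sown with Echinochloa oryzacola, Scirpus juncoides and Monochoria vaginalis, then transplanted with 2.5 leaf stage rice seedlings; pre-emergence application. Greenhouse 25° C. to 30° C.; scored 0–5 by herbicidal ratio 3 weeks after application.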

[3] = system: Echinochloa crus-galli var. crus-galli; experiment: Test Example 5: herbicidal effect by foliage application, plastic box (symbol H); details: 320 g/ha, 3 weeks after application
In short: as §3

Stellaria media = experiment: Test Example 5: herbicidal effect by foliage application, plastic box (symbol P); details: 320 g/ha, 3 weeks after application
In short: as §3

[4] = system: Echinochloa oryzacola Vasing.; experiment: Test Example 1: herbicidal activity, application before weed generation in submerged conditions (symbol A); details: application herbicide amount 320 g/ha
In short: (§5)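 Compound emulsion was diluted to a set herbicide amount and applied to the water surface on the sowing day, into submerged (4 cm) alluvial-soil pots sown with mixed weed seeds and transplanted 2.5-leaf rice. Pots were held in a 25–30 °C greenhouse, and weeds were scored 0–5 by herbicidal ratio after 3 weeks.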

Alopecurus myosuroides = experiment: Test Example 5: herbicidal effect by foliage application, plastic box (symbol J); details: 320 g/ha, 3 weeks after application
In short: as §3

beet = experiment: Test Example 5: effect on crop by foliage application, plastic box (symbol f); details: 320 g/ha, 3 weeks after application
In short: as §4

Setaria viridis = experiment: Test Example 5: herbicidal effect by foliage application, plastic box (symbol G); details: 320 g/ha, 3 weeks after application
In short: as §3

Monochoria vaginalis [5] = experiment: Test Example 1: herbicidal activity, application before weed generation in submerged conditions (symbol C); details: application herbicide amount 320 g/ha
In short: as §5

Veronica persica = experiment: Test Example 5: herbicidal effect by foliage application, plastic box (symbol R); details: 320 g/ha, 3 weeks after application
In short: as §3

Apera spica-venti = experiment: Test Example 5: herbicidal effect by foliage application, plastic box (symbol L); details: 320 g/ha, 3 weeks after application
In short: as §3

rice plant = experiment: Test Example 5: effect on crop by foliage application, plastic box (symbol b); details: 320 g/ha, 3 weeks after application
In short: as §4

wheat = experiment: Test Example 5: effect on crop by foliage application, plastic box (symbol e); details: 320 g/ha, 3 weeks after application
In short: as §4

Digitaria ciliaris = experiment: Test Example 5: herbicidal effect by foliage application, plastic box (symbol F); details: 320 g/ha, 3 weeks after application
In short: as §3

Scirpus juncoides [6] = experiment: Test Example 1: herbicidal activity, application before weed generation in submerged conditions (symbol B); details: application herbicide amount 320 g/ha
In short: as §5

Scirpus juncoides [7] = experiment: Test Example 2: herbicidal activity, application during weed generation in submerged conditions (symbol B); details: Table 23; application herbicide amount 320 g/ha; grade 0-5 by criteria of Test Example 1
Description: as §1, §2

rapeseed = experiment: Test Example 5: effect on crop by foliage application, plastic box (symbol g); details: 320 g/ha, 3 weeks after application
In short: as §4

Amaranthus retroflexus = experiment: Test Example 5: herbicidal effect by foliage application, plastic box (symbol N); details: 320 g/ha, 3 weeks after application
In short: as §3

Leptochloa chinensis = experiment: Test Example 3: herbicidal effect by foliage application, Wagner pot (symbol D); details: application herbicide amount 320 g/ha
In short: (§6)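 Steps: fill pot with alluvial soil; add water to 0.1–0.5 cm depth; sow weed and rice seed; grow 14 days at 25–30 °C; spray diluted emulsion over the leaves; rate effect after 3 weeks.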

[8] = system: Echinochloa crus-galli var. crus-galli; experiment: Test Example 3: herbicidal effect by foliage application, Wagner pot (symbol H); details: application herbicide amount 320 g/ha
In short: as §6

[9] = system: directly sowed rice plant; experiment: Test Example 3: effect on crop by foliage application, Wagner pot (symbol b); details: application herbicide amount 320 g/ha
In short: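 Steps: fill a 1/10000-are Wagner pot with alluvial soil; add water and mix to submerge at 0.1–0.5 cm depth; sow rice plus Echinochloa crus-galli var. crus-galli, Leptochloa chinensis and Cyperus difformis; grow in a 25–30 °C greenhouse.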

With `CC(CC1CC(O)=C(c2c(C)cc(C)cc2C)C1=O)=NOCc1c(F)cccc1Cl` (stereo not shown) [1-115] the “Herbicidal effect grade, A: Echinochloa oryzacola Vasing.” value [1] was 3 (Herbicidal ratio of 40% or higher and lower than 70%), the “K: Lolium multiflorum Lam., herbicidal effect (criteria 0-5)” value (Lolium multiflorum Lam.) was 3 (Herbicidal ratio of 40% or higher and lower than 70%) and the “I: Avena fatua, herbicidal effect (criteria 0-5)” value (Avena fatua) was 2 (Herbicidal ratio of 20% or higher and lower than 40%). The “O: Chenopodium album, herbicidal effect (criteria 0-5)” value (Chenopodium album) was 0 (Herbicidal ratio of 5% or lower (almost no effect)), the “d: soybean, effect on crop (criteria 0-5)” value (soybean) was 0 (Herbicidal ratio of 5% or lower (almost no effect)) and the “M: Abutilon theophrasti, herbicidal effect (criteria 0-5)” value (Abutilon theophrasti) was 0 (Herbicidal ratio of 5% or lower (almost no effect)). For the same compound, the “Q: Galium spurium, herbicidal effect (criteria 0-5)” value (Galium spurium) was 0 (Herbicidal ratio of 5% or lower (almost no effect)), the “Herbicidal effect grade, C: Monochoria vaginalis” value (shortened to “Herbicidal effect grade, C”) (Monochoria vaginalis [2]) was 0 (Herbicidal ratio of 5% or lower (almost no effect)) and the “c: corn, effect on crop (criteria 0-5)” value (corn) was 0 (Herbicidal ratio of 5% or lower (almost no effect)). For the same compound, the “Effect grade on crop, a: transplanted rice plant” value (transplanted rice plant) was 1 (Herbicidal ratio of 5% or higher and lower than 20%), the “H: Echinochloa crus-galli var. crus-galli, herbicidal effect (criteria 0-5)” value [3] was 1 (Herbicidal ratio of 5% or higher and lower than 20%) and the “P: Stellaria media, herbicidal effect (criteria 0-5)” value (Stellaria media) was 1 (Herbicidal ratio of 5% or higher and lower than 20%). For the same compound, the “Herbicidal effect grade, A: Echinochloa oryzacola Vasing.” value [4] was 5 (Herbicidal ratio of 90% or more (almost completely withered)), the “J: Alopecurus myosuroides, herbicidal effect (criteria 0-5)” value (Alopecurus myosuroides) was 3 (Herbicidal ratio of 40% or higher and lower than 70%) and the “f: beet, effect on crop (criteria 0-5)” value (beet) was 0 (Herbicidal ratio of 5% or lower (almost no effect)). The “G: Setaria viridis, herbicidal effect (criteria 0-5)” value (Setaria viridis) was 1 (Herbicidal ratio of 5% or higher and lower than 20%), the “Herbicidal effect grade, C” value (Monochoria vaginalis [5]) was 4 (Herbicidal ratio of 70% or higher and lower than 90%) and the “R: Veronica persica, herbicidal effect (criteria 0-5)” value (Veronica persica) was 1 (Herbicidal ratio of 5% or higher and lower than 20%). For the same compound, the “L: Apera spica-venti, herbicidal effect (criteria 0-5)” value (Apera spica-venti) was 4 (Herbicidal ratio of 70% or higher and lower than 90%), the “b: directly sowed rice plant, effect on crop (criteria 0-5)” value (rice plant) was 1 (Herbicidal ratio of 5% or higher and lower than 20%) and the “e: wheat, effect on crop (criteria 0-5)” value (wheat) was 0 (Herbicidal ratio of 5% or lower (almost no effect)). The “F: Digitaria ciliaris, herbicidal effect (criteria 0-5)” value (Digitaria ciliaris) was 2 (Herbicidal ratio of 20% or higher and lower than 40%), the “Herbicidal effect grade, B: Scirpus juncoides” value (“Herbicidal effect grade, B” for short) (Scirpus juncoides [6]) was 3 (Herbicidal ratio of 40% or higher and lower than 70%) and the “Herbicidal effect grade, B” value (Scirpus juncoides [7]) was 2 (Herbicidal ratio of 20% or higher and lower than 40%). For the same compound, the “g: rapeseed, effect on crop (criteria 0-5)” value (rapeseed) was 5 (Herbicidal ratio of 90% or more (almost completely withered)) and the “N: Amaranthus retroflexus, herbicidal effect (criteria 0-5)” value (Amaranthus retroflexus) was 0 (Herbicidal ratio of 5% or lower (almost no effect)).

`CON=C(C)CC1CC(OCC(Cl)=CCl)=C(c2c(C)cc(C)cc2C)C1=O` (stereo not shown) [1-166] was tested, and the “Herbicidal effect grade, A: Echinochloa oryzacola Vasing.” value [1] was 3 (Herbicidal ratio of 40% or higher and lower than 70%), the “K: Lolium multiflorum Lam., herbicidal effect grade” value (Lolium multiflorum Lam.) was 5 (Herbicidal ratio of 90% or more (almost completely withered)) and the “herbicidal effect on D (Leptochloa chinensis), grade 0-5” value (Leptochloa chinensis) was 4 (Herbicidal ratio of 70% or higher and lower than 90%). The “I: Avena fatua, herbicidal effect grade” value (Avena fatua) was 5 (Herbicidal ratio of 90% or more (almost completely withered)), the “O: Chenopodium album, herbicidal effect grade” value (Chenopodium album) was 0 (Herbicidal ratio of 5% or lower (almost no effect)) and the “d: soybean, effect on crop grade” value (soybean) was 1 (Herbicidal ratio of 5% or higher and lower than 20%). The “M: Abutilon theophrasti, herbicidal effect grade” value (Abutilon theophrasti) was 3 (Herbicidal ratio of 40% or higher and lower than 70%), the “Q: Galium spurium, herbicidal effect grade” value (Galium spurium) was 0 (Herbicidal ratio of 5% or lower (almost no effect)) and the “Herbicidal effect grade, C” value (Monochoria vaginalis [2]) was 0 (Herbicidal ratio of 5% or lower (almost no effect)). The “c: corn, effect on crop grade” value (corn) was 1 (Herbicidal ratio of 5% or higher and lower than 20%), the “Effect grade on crop, a: transplanted rice plant” value (transplanted rice plant) was 0 (Herbicidal ratio of 5% or lower (almost no effect)) and the “H: Echinochloa crus-galli var. crus-galli, herbicidal effect grade” value [3] was 4 (Herbicidal ratio of 70% or higher and lower than 90%). For the same compound, the “P: Stellaria media, herbicidal effect grade” value (Stellaria media) was 0 (Herbicidal ratio of 5% or lower (almost no effect)), the “Herbicidal effect grade, A: Echinochloa oryzacola Vasing.” value [4] was 5 (Herbicidal ratio of 90% or more (almost completely withered)) and the “J: Alopecurus myosuroides, herbicidal effect grade” value (Alopecurus myosuroides) was 4 (Herbicidal ratio of 70% or higher and lower than 90%). For the same compound, the “f: beet, effect on crop grade” value (beet) was 0 (Herbicidal ratio of 5% or lower (almost no effect)), the “G: Setaria viridis, herbicidal effect grade” value (Setaria viridis) was 1 (Herbicidal ratio of 5% or higher and lower than 20%) and the “Herbicidal effect grade, C” value (Monochoria vaginalis [5]) was 0 (Herbicidal ratio of 5% or lower (almost no effect)). The “R: Veronica persica, herbicidal effect grade” value (Veronica persica) was 0 (Herbicidal ratio of 5% or lower (almost no effect)), the “L: Apera spica-venti, herbicidal effect grade” value (Apera spica-venti) was 5 (Herbicidal ratio of 90% or more (almost completely withered)) and the “b: directly sowed rice plant, effect on crop grade” value (rice plant) was 3 (Herbicidal ratio of 40% or higher and lower than 70%). The “e: wheat, effect on crop grade” value (wheat) was 1 (Herbicidal ratio of 5% or higher and lower than 20%), the “F: Digitaria ciliaris, herbicidal effect grade” value (Digitaria ciliaris) was 1 (Herbicidal ratio of 5% or higher and lower than 20%) and the “Herbicidal effect grade, B” value (Scirpus juncoides [6]) was 0 (Herbicidal ratio of 5% or lower (almost no effect)). For the same compound, the “herbicidal effect on H (Echinochloa crus-galli var. crus-galli), grade 0-5” value [8] was 4 (Herbicidal ratio of 70% or higher and lower than 90%), the “Herbicidal effect grade, B” value (Scirpus juncoides [7]) was 0 (Herbicidal ratio of 5% or lower (almost no effect)) and the “effect on crop b (directly sowed rice plant), grade 0-5” value [9] was 3 (Herbicidal ratio of 40% or higher and lower than 70%). The “g: rapeseed, effect on crop grade” value (rapeseed) was 4 (Herbicidal ratio of 70% or higher and lower than 90%) and the “N: Amaranthus retroflexus, herbicidal effect grade” value (Amaranthus retroflexus) was 0 (Herbicidal ratio of 5% or lower (almost no effect)).
